For this test, the system named is MV-4-11 cells. The experiment in a line: Gene expression microarray analysis (Affymetrix PrimeView) and GSEA. On the set-up: RFU PODN (11730768_x_at) / Fold change /veh PODN (11730768_x_at) / RFU LINC00158 (11744669_a_at) / Fold change /veh LINC00158 (11744669_a_at) / RFU DUSP10 (11751237_a_at) / Fold change /veh DUSP10 (11751237_a_at) / RFU ID3 (11757404_x_at) / Fold change /veh ID3 (11757404_x_at) / RFU PLEKHG5 (11737974_s_at) / Fold change /veh PLEKHG5 (11737974_s_at) / RFU LRRC4B (11730491_at) / Fold change /veh LRRC4B (11730491_at) / RFU GIMAP4 (11747438_a_at) / Fold change /veh GIMAP4 (11747438_a_at) / RFU KRT8 (11758183_x_at) / Fold change /veh KRT8 (11758183_x_at) / RFU CNN1 (11734310_a_at) / Fold change /veh CNN1 (11734310_a_at) / RFU VPS37D (11726825_at) / Fold change /veh VPS37D (11726825_at) / RFU C10orf10 (11716522_x_at) / Fold change /veh C10orf10 (11716522_x_at) / RFU KIR2DL2 /// KIR2DL4 /// KIR2DL5A /// KIR2DL5B /// KIR2DS1 /// KIR2DS2 /// KIR2DS3 /// KIR2DS4 /// KIR3DL3 /// KIR3DL3 /// KIR3DS1 (11738374_at) / Fold change /veh KIR2DL2 /// KIR2DL4 /// KIR2DL5A /// KIR2DL5B /// KIR2DS1 /// KIR2DS2 /// KIR2DS3 /// KIR2DS4 /// KIR3DL3 /// KIR3DL3 /// KIR3DS1 (11738374_at) / RFU C1QL1 (11718748_at) / Fold change /veh C1QL1 (11718748_at) / RFU TMPRSS4 (11747572_a_at) / Fold change /veh TMPRSS4 (11747572_a_at) / RFU HAMP (11756126_x_at) / Fold change /veh HAMP (11756126_x_at) / RFU RNFT2 (11725882_a_at) / Fold change /veh RNFT2 (11725882_a_at) / RFU NR4A2 (11747474_a_at) / Fold change /veh NR4A2 (11747474_a_at) / RFU ABCC12 (11746883_a_at) / Fold change /veh ABCC12 (11746883_a_at) / RFU TMEM136 (11760407_x_at) / Fold change /veh TMEM136 (11760407_x_at) / RFU CLDN22 /// WWC2 (11732394_at) / Fold change /veh CLDN22 /// WWC2 (11732394_at) / RFU HLA-DPB1 (11760878_x_at) / Fold change /veh HLA-DPB1 (11760878_x_at) / RFU SPINT1 (11716480_a_at) / Fold change /veh SPINT1 (11716480_a_at) / RFU GAP43 (11754022_s_at) / Fold change /veh GAP43 (11754022_s_at) / RFU A4GNT (11735810_at) / Fold change /veh A4GNT (11735810_at) / RFU PRB3 (11715151_x_at) / Fold change /veh PRB3 (11715151_x_at) / RFU TUBB4B (11761932_at) / Fold change /veh TUBB4B (11761932_at) / RFU CAPN14 (11732068_a_at) / Fold change /veh CAPN14 (11732068_a_at) / RFU TMCC2 (11721928_a_at) / Fold change /veh TMCC2 (11721928_a_at) / RFU IRGQ (11745062_a_at) / Fold change /veh IRGQ (11745062_a_at) / RFU FAM174B (11720279_a_at) / Fold change /veh FAM174B (11720279_a_at) / RFU TMPRSS4 (11748680_a_at) / Fold change /veh TMPRSS4 (11748680_a_at) / RFU FAM212B (11763350_a_at) / Fold change /veh FAM212B (11763350_a_at) / RFU PLEKHG5 (11743358_a_at) / Fold change /veh PLEKHG5 (11743358_a_at) / RFU ZSCAN30 (11745921_a_at) / Fold change /veh ZSCAN30 (11745921_a_at) / RFU CMKLR1 (11741424_a_at) / Fold change /veh CMKLR1 (11741424_a_at) / RFU LOC101060620 /// MAPK8IP1 (11723275_at) / Fold change /veh LOC101060620 /// MAPK8IP1 (11723275_at) / RFU SPTSSB (11747773_x_at) / Fold change /veh SPTSSB (11747773_x_at) / RFU PRSS12 (11739890_at) / Fold change /veh PRSS12 (11739890_at) / RFU BIN1 (11741810_x_at) / Fold change /veh BIN1 (11741810_x_at) / RFU WNT11 (11732464_a_at) / Fold change /veh WNT11 (11732464_a_at) / RFU C10orf10 (11716521_a_at) / Fold change /veh C10orf10 (11716521_a_at) / RFU C5orf56 (11738089_at) / Fold change /veh C5orf56 (11738089_at) / RFU CYB561 (11721691_x_at) / Fold change /veh CYB561 (11721691_x_at) / RFU ANKRD19P (11752326_a_at) / Fold change /veh ANKRD19P (11752326_a_at) / RFU OR2T12 /// OR2T33 /// OR2T8 (11738714_s_at) / Fold change /veh OR2T12 /// OR2T33 /// OR2T8 (11738714_s_at) / RFU VCAN (11748164_a_at) / Fold change /veh VCAN (11748164_a_at) / RFU JSRP1 (11732532_at) / Fold change /veh JSRP1 (11732532_at) / RFU KRTAP10-11 (11738290_x_at) / Fold change /veh KRTAP10-11 (11738290_x_at) / RFU MYO3A (11730013_a_at) / Fold change /veh MYO3A (11730013_a_at) / RFU EBF3 (11725865_a_at) / Fold change /veh EBF3 (11725865_a_at) / RFU CAMK2N1 (11719241_x_at) / Fold change /veh CAMK2N1 (11719241_x_at) / RFU C5orf56 (11738088_a_at) / Fold change /veh C5orf56 (11738088_a_at) / RFU OLFML3 (11715873_a_at) / Fold change /veh OLFML3 (11715873_a_at) / RFU LOC100653217 /// NTM (11731650_a_at) / Fold change /veh LOC100653217 /// NTM (11731650_a_at) / RFU MAPK11 (11762145_a_at) / Fold change /veh MAPK11 (11762145_a_at) / RFU FIZ1 (11724087_x_at) / Fold change /veh FIZ1 (11724087_x_at) / RFU OASL (11726364_x_at) / Fold change /veh OASL (11726364_x_at) / RFU SOX15 (11748057_x_at) / Fold change /veh SOX15 (11748057_x_at) / RFU CD79A (11719716_a_at) / Fold change /veh CD79A (11719716_a_at) / RFU HIST1H1D (11736915_at) / Fold change /veh HIST1H1D (11736915_at) / RFU CASKIN2 (11723855_a_at) / Fold change /veh CASKIN2 (11723855_a_at) / RFU LOC730098 (11760151_x_at) / Fold change /veh LOC730098 (11760151_x_at) / RFU OR4N2 (11742367_at) / Fold change /veh OR4N2 (11742367_at) / RFU PRRT2 (11749266_a_at) / Fold change /veh PRRT2 (11749266_a_at) / RFU SNX32 (11753110_a_at) / Fold change /veh SNX32 (11753110_a_at) / RFU CDHR5 (11726645_a_at) / Fold change /veh CDHR5 (11726645_a_at) / RFU RCAN1 (11760418_a_at) / Fold change /veh RCAN1 (11760418_a_at) / RFU FAM167A (11723789_a_at) / Fold change /veh FAM167A (11723789_a_at) / RFU FAM26E (11764081_at) / Fold change /veh FAM26E (11764081_at) / RFU ISYNA1 (11749810_s_at) / Fold change /veh ISYNA1 (11749810_s_at) / RFU ACY1 (11761880_at) / Fold change /veh ACY1 (11761880_at) / RFU 11764098_at / Fold change /veh 11764098_at / RFU SAMD14 (11745864_x_at) / Fold change /veh SAMD14 (11745864_x_at) / RFU NPB (11741838_a_at) / Fold change /veh NPB (11741838_a_at) / RFU TMPRSS6 (11731388_a_at) / Fold change /veh TMPRSS6 (11731388_a_at) / RFU KRTAP10-2 (11738614_at) / Fold change /veh KRTAP10-2 (11738614_at) / RFU ARHGAP8 /// PRR5-ARHGAP8 (11727945_x_at) / Fold change /veh ARHGAP8 /// PRR5-ARHGAP8 (11727945_x_at) / RFU KRTAP5-7 /// NADSYN1 (11734609_at) / Fold change /veh KRTAP5-7 /// NADSYN1 (11734609_at) / RFU RASL12 (11751679_a_at) / Fold change /veh RASL12 (11751679_a_at) / RFU CDKN2B (11736163_a_at) / Fold change /veh CDKN2B (11736163_a_at) / RFU PRF1 (11729649_at) / Fold change /veh PRF1 (11729649_at) / RFU, ZNF638 /// ZNF638-IT1 / Fold change vs veh, ZNF638 /// ZNF638-IT1 / RFU, PANK3 / Fold change vs veh, PANK3 / RFU, SH3YL1 / Fold change vs veh, SH3YL1 / RFU, ZEB2 / Fold change vs veh, ZEB2 / RFU, NRIP1 / Fold change vs veh, NRIP1 / RFU, PTTG1IP / Fold change vs veh, PTTG1IP / RFU, CAPN2 / Fold change vs veh, CAPN2 / RFU, MED14 / Fold change vs veh, MED14 / RFU, SNORA58 / Fold change vs veh, SNORA58 / RFU, C1orf63 / Fold change vs veh, C1orf63 / RFU, LRRFIP1 / Fold change vs veh, LRRFIP1 / RFU, NDUFAF7 / Fold change vs veh, NDUFAF7 / RFU, SLC12A2 / Fold change vs veh, SLC12A2 / RFU, IBTK / Fold change vs veh, IBTK / RFU, ESF1 / Fold change vs veh, ESF1 / Fold change vs veh, TMEM50B / RFU, TAOK1 / Fold change vs veh, TAOK1 / RFU, ACBD3 / Fold change vs veh, ACBD3 / RFU, TMA16 / Fold change vs veh, TMA16 / RFU, RWDD3 / Fold change vs veh, RWDD3 / RFU, BCAT1 / Fold change vs veh, BCAT1 / RFU, EDEM3 / Fold change vs veh, EDEM3 / RFU, TMEM33 / Fold change vs veh, TMEM33 / RFU, WDR75 / Fold change vs veh, WDR75 / RFU, AHCTF1 / Fold change vs veh, AHCTF1 / RFU, TFRC / Fold change vs veh, TFRC / RFU, ZDHHC17 / Fold change vs veh, ZDHHC17 / RFU, NOM1 / Fold change vs veh, NOM1 / RFU, ARL8B / Fold change vs veh, ARL8B / RFU, ZBTB11 / Fold change vs veh, ZBTB11 / RFU, TAMM41 / Fold change vs veh, TAMM41 / RFU, KIAA1704 /// LOC100996395 / Fold change vs veh, KIAA1704 /// LOC100996395 / RFU, ING1 / Fold change vs veh, ING1 / RFU, TRMT61B / Fold change vs veh, TRMT61B / RFU, FUBP3 / Fold change vs veh, FUBP3 / RFU, TP53 / Fold change vs veh, TP53 / RFU, TNKS2 / Fold change vs veh, TNKS2 / RFU, ZFP14 / Fold change vs veh, ZFP14 / RFU, ACTR2 / Fold change vs veh, ACTR2 / RFU, PPP3R1 / Fold change vs veh, PPP3R1 / RFU, PIK3R1 / Fold change vs veh, PIK3R1 / RFU, HNRNPA1 / Fold change vs veh, HNRNPA1 / RFU, RNF170 / Fold change vs veh, RNF170 / RFU, ZNF28 / Fold change vs veh, ZNF28 / RFU, RNGTT / Fold change vs veh, RNGTT / RFU, OGT / Fold change vs veh, OGT / RFU, BRD1 / Fold change vs veh, BRD1 / RFU, MARS / Fold change vs veh, MARS / RFU, ZNF655 / Fold change vs veh, ZNF655 / RFU, FAHD1 / Fold change vs veh, FAHD1 / RFU, BDP1 / Fold change vs veh, BDP1 / RFU, LRRCC1 / Fold change vs veh, LRRCC1 / RFU, ARID1A / Fold change vs veh, ARID1A / RFU, ZNF146 / Fold change vs veh, ZNF146 / RFU, ZNF330 / Fold change vs veh, ZNF330 / RFU, GPN3 / Fold change vs veh, GPN3 / RFU, C9orf123 / Fold change vs veh, C9orf123 / RFU, N4BP2L2 / Fold change vs veh, N4BP2L2 / RFU, ARFIP1 / Fold change vs veh, ARFIP1 / RFU, FAM179B / Fold change vs veh, FAM179B / RFU, BCL10 / Fold change vs veh, BCL10 / RFU, UHRF1BP1L / Fold change vs veh, UHRF1BP1L / RFU, BET1 / Fold change vs veh, BET1 / RFU, CNOT2 / Fold change vs veh, CNOT2 / RFU, ZNF268 / Fold change vs veh, ZNF268 / Fold change vs veh, ZNF507 / RFU, DGCR2 / Fold change vs veh, DGCR2 / RFU, WDSUB1 / Fold change vs veh, WDSUB1 / Fold change vs veh, HSP90B1 /// MIR3652 / RFU, ADSS / Fold change vs veh, ADSS / RFU, GK / Fold change vs veh, GK / RFU, ZNF148 / Fold change vs veh, ZNF148 / RFU, TAF9 / Fold change vs veh, TAF9 / RFU, SLC1A5 / Fold change vs veh, SLC1A5 / RFU, SLMO2 / Fold change vs veh, SLMO2 / RFU, ABCC4 / Fold change vs veh, ABCC4 / RFU, LOC101060439 /// RAP1B / Fold change vs veh, LOC101060439 /// RAP1B / RFU, RFX7 / Fold change vs veh, RFX7 / RFU, GTPBP10 / Fold change vs veh, GTPBP10 / RFU, CNEP1R1 / Fold change vs veh, CNEP1R1 / RFU, BIVM-ERCC5 /// ERCC5 / Fold change vs veh, BIVM-ERCC5 /// ERCC5 / RFU, ILF3 / Fold change vs veh, ILF3 / RFU 11762660_at / Fold change /veh 11762660_at / RFU VCAN (11757783_s_at) / Fold change /veh VCAN (11757783_s_at) / RFU DDX43 (11728927_at) / Fold change /veh DDX43 (11728927_at) / RFU KRT8 (11758188_x_at) / Fold change /veh KRT8 (11758188_x_at) / RFU NKD1 (11759106_at) / Fold change /veh NKD1 (11759106_at) / RFU SRD5A1 (11742802_a_at) / Fold change /veh SRD5A1 (11742802_a_at) / RFU TPSAB1 /// TPSB2 (11721975_s_at) / Fold change /veh TPSAB1 /// TPSB2 (11721975_s_at) / RFU GSTM3 (11746129_a_at) / Fold change /veh GSTM3 (11746129_a_at) / RFU IL23R (11737362_x_at) / Fold change /veh IL23R (11737362_x_at) / RFU TMEM51 (11727254_a_at) / Fold change /veh TMEM51 (11727254_a_at) / RFU PIWIL2 (11732686_x_at) / Fold change /veh PIWIL2 (11732686_x_at) / RFU ORM1 (11744905_x_at) / Fold change /veh ORM1 (11744905_x_at) / RFU CCDC152 (11743942_at) / Fold change /veh CCDC152 (11743942_at) / RFU ECM1 (11717891_a_at) / Fold change /veh ECM1 (11717891_a_at) / RFU IL23R (11748794_a_at) / Fold change /veh IL23R (11748794_a_at) / RFU TNFAIP8L3 (11732012_x_at) / Fold change /veh TNFAIP8L3 (11732012_x_at) / RFU MBOAT4 (11741988_at) / Fold change /veh MBOAT4 (11741988_at) / RFU 11764193_at / Fold change /veh 11764193_at / RFU TMEM53 (11763286_at) / Fold change /veh TMEM53 (11763286_at) / RFU MAGEB2 (11727129_at) / Fold change /veh MAGEB2 (11727129_at) / RFU TMEM200A (11744735_a_at) / Fold change /veh TMEM200A (11744735_a_at) / RFU CCDC152 (11751479_a_at) / Fold change /veh CCDC152 (11751479_a_at) / RFU FAM211A (11726209_a_at) / Fold change /veh FAM211A (11726209_a_at) / RFU RGS16 (11746705_a_at) / Fold change /veh RGS16 (11746705_a_at) / RFU VCAN (11755009_s_at) / Fold change /veh VCAN (11755009_s_at) / RFU RHOB (11743442_s_at) / Fold change /veh RHOB (11743442_s_at) / RFU RGS16 (11720943_a_at) / Fold change /veh RGS16 (11720943_a_at) / RFU RGS16 (11720944_at) / Fold change /veh RGS16 (11720944_at) / RFU, VPS4B / Fold change vs veh, VPS4B / RFU, CREB1 / Fold change vs veh, CREB1 / RFU, DNAJC13 / Fold change vs veh, DNAJC13 / RFU, GNAQ / Fold change vs veh, GNAQ / RFU, CDK5R1 / Fold change vs veh, CDK5R1 / RFU, ZRANB3 / Fold change vs veh, ZRANB3 / RFU, CUL4A / Fold change vs veh, CUL4A / RFU, CCNY / Fold change vs veh, CCNY / RFU, UFL1 / Fold change vs veh, UFL1 / RFU, COG3 / Fold change vs veh, COG3 / RFU, DIAPH2 / Fold change vs veh, DIAPH2 / RFU, SKA2 / Fold change vs veh, SKA2 / RFU, AFF3 / Fold change vs veh, AFF3 / RFU, LMF1 / Fold change vs veh, LMF1 / RFU, IPO11 / Fold change vs veh, IPO11 / RFU, DFFB / Fold change vs veh, DFFB / RFU, FOXP1 / Fold change vs veh, FOXP1 / RFU, CARD8 / Fold change vs veh, CARD8 / RFU, STRN3 / Fold change vs veh, STRN3 / RFU, ADK / Fold change vs veh, ADK / RFU, RASSF2 / Fold change vs veh, RASSF2 / RFU, WIPF1 / Fold change vs veh, WIPF1 / RFU, LARP1B / Fold change vs veh, LARP1B / RFU, RASA1 / Fold change vs veh, RASA1 / RFU, RB1 / Fold change vs veh, RB1 / RFU, PPFIA1 / Fold change vs veh, PPFIA1 / RFU, MAT2A / Fold change vs veh, MAT2A / RFU, CCT5 / Fold change vs veh, CCT5 / RFU, WDR92 / Fold change vs veh, WDR92 / RFU, CUX1 / Fold change vs veh, CUX1 / RFU, TTC7A / Fold change vs veh, TTC7A / RFU, TMEM135 / Fold change vs veh, TMEM135 / RFU, DEPTOR / Fold change vs veh, DEPTOR / RFU, CPM / Fold change vs veh, CPM / RFU, DNAJB6 / Fold change vs veh, DNAJB6 / RFU, CACNA2D3 / Fold change vs veh, CACNA2D3 / RFU, DTX4 / Fold change vs veh, DTX4 / RFU, TFCP2 / Fold change vs veh, TFCP2 / RFU, GMCL1 /// GMCL1P1 / Fold change vs veh, GMCL1 /// GMCL1P1 / RFU, AEBP2 / Fold change vs veh, AEBP2 / RFU, SNHG1 /// SNORD22 /// SNORD25 /// SNORD26 /// SNORD27 /// SNORD28 /// SNORD29 /// SNORD31 / Fold change vs veh, SNHG1 /// SNORD22 /// SNORD25 /// SNORD26 /// SNORD27 /// SNORD28 /// SNORD29 /// SNORD31 / Fold change (Aza/veh), C12orf56 (ProbeSet 11735607_a_at) / Fold change (ACY-1035/veh), C12orf56 (ProbeSet 11735607_a_at) / Fold change (Aza/veh), FGFR1OP (ProbeSet 11751329_s_at) / Fold change (ACY-1035/veh), FGFR1OP (ProbeSet 11751329_s_at) / Fold change (Aza/veh), VPS36 (ProbeSet 11739960_a_at) / Fold change (ACY-1035/veh), VPS36 (ProbeSet 11739960_a_at) / RFU SYPL1 (11715823_x_at) / Fold change /veh SYPL1 (11715823_x_at) / RFU IGFBP7 (11715501_s_at) / Fold change /veh IGFBP7 (11715501_s_at) / RFU REEP3 (11722064_at) / Fold change /veh REEP3 (11722064_at) / RFU IGLL1 (11728026_x_at) / Fold change /veh IGLL1 (11728026_x_at): dose or concentration left out as unconfirmed. The class given is cell-based, human. To be noted: ProbeSet 11749781_s_at; LIST B.

The source of these data is article PMC5218480 (PLoS ONE, 2017).

In the case of `Nc1ccc(-c2cccs2)cc1NC(=O)c1ccc2c(c1)cc(C1CC1)n2CCN1CCOCC1` [ACY-1035], the “Fold change vs veh, BCAT1” value amounted to 0.87.
